From patent US9254293B2, “Methods and compositions for inhibiting or reducing hair loss, acne, rosacea, prostate cancer, and BPH” (The Trustees of the University of Pennsylvania, priority 2006, dated 2016)
“Also recorded” adds a separate entry of the source.

Test system: wild-type c57/black mice
Experiment: Topical application of PGD2 to the shaved central back of mice, effect on hair growth
Format: in vivo
Protocol: 25 day-old (corresponding to end of the first telogen stage) wild-type c57/black mice were treated with 200 ng of PGD2 (Cayman Chemicals) diluted in 200 μl of acetone applied to the central back after shaving. Subsequent treatments were performed every 3 days, ending on day 40 For a total of […]. Photographs were taken on day 46 of life, after the end of the 2nd anagen. In the second experiment, mice were shaved and treated with 10 μg of PGD2 dissolved in 200 μl of acetone on days 66 and 69 of life, and then photographed on day #121.

SMILES: CCCCC[C@H](O)/C=C/[C@H]1C(=O)C[C@H](O)[C@@H]1C/C=C\CCCC(=O)O [PGD2, prostaglandin D2]
- effect of PGD2 on hair growth (alopecia) (25 day-old mice, 200 ng PGD2 in 200 μl acetone on central back after shaving, every 3 days to day 40 (5 applications), photographed day 46 after end of 2nd anagen): baldness (alopecia); also recorded: induced alopecia
- effect of PGD2 on hair regrowth (mice shaved, 10 μg PGD2 in 200 μl acetone on days 66 and 69 of life, photographed day 121, over 50 days after the last application): prevent hair regrowth
